According to patent US8110543B2, “Anti-invasive and anti-angiogenic compositions” (Angstrom Pharmaceuticals, Inc., priority 1997, dated 2012):

Legend:
PC-3 cells = test: PC-3 CAT metastasis model; type: in vivo, mice; conditions: minipump 100 mg/kg/day, 14 or 21 days
Protocol: The compounds of this invention are also tested for inhibition of late metastasis using an experimental metastasis model (Crowley et al., 1993). Late metastasis involves the steps of attachment and extravasation of tumor cells, local invasion, seeding, proliferation and angiogenesis.
Human prostatic carcinoma cells (PC-3) transfected with a reporter gene, preferably the green fluorescent protein (GFP) gene, but as an alternative with a gene encoding the enzymes chioramphenicol acetyl-transferase (CAT), luciferase or LacZ. This permits utilization of either of these markers (fluorescence detection of GFP or histochemical colorimetric detection of enzymatic activity) for following the fate of these cells. Cells are injected, preferably iv, and metastases identified after about 14 days, particularly in the lungs but also in regional lymph nodes, femurs and brain. This mimics the organ tropism of naturally occurring metastases of prostate cancer. For example, GFP-expressing PC-3 cells (1×10^6 cells per mouse) are injected iv into the tail veins of nude (nu/nu) mice. Animals are also implanted with mini-pumps (sub-dermally on the back) dispensing either the test compound (at least about 100 mg/kg/day) or vehicle. The animals are euthanized after 14 days and their organs prepared for histological examination. Single metastatic cells and foci are visualized and quantitated by fluorescence microscopy or light microscopic histochemistry or by grinding the tissue and quantitative colorimetric assay of the detectable label.
(§1) In addition to Å6, other related peptide compounds described above are tested for efficacy in vivo in the 3LL model (as provided above) as well as the PC-3 model. PC-3 cells transfected with the gene encoding the enzyme chloramphenicol acetyl-transferase (CAT) are inoculated into mice i.v. at doses of 1×10^6 cells per mouse. These mice are implanted with a minipump, as above, which dispenses 100 mg/kg/day of the peptide or vehicle over a period of 14 or 21 days. At termination of treatment, the animals are euthanized and the tumor marker probe is assayed in regional lymph nodes, femurs, lungs, and brain.

3LL = 3LL metastasis model, related peptides; design: species or system mice; conditions: mouse, in vivo
Text: This model has been utilized by a number of investigators. See, for example, Gorelik, E. et al., J. Nat'l. Canc. Inst. 65:1257-1264 (1980); Gorelik, E. et al., Rec. Results Canc Res. 75:20-28 (1980); Isakov, N. et al., Invasion Metas. 2:12-32 (1982); Talmadge J. E. et al., J. Nat'l. Canc. Inst. 69:975-980 (1982); Hilgard, P. et al, Br. J. Cancer 35:78-86 (1977)). Test mice are male C57BL/6 mice, 2-3 months old. Following sc, im, or intra-footpad implantation, this tumor produces metastases, preferentially in the lungs. With some lines of the tumor, the primary tumor exerts anti-metastatic effects and must first be excised before study of the metastatic phase (see also U.S. Pat. No. 5,639,725).
Single-cell suspensions are prepared from solid tumors by treating minced tumor tissue with a solution of 0.3% trypsin. Cells are washed 3 times with PBS (pH 7.4) and suspended in PBS. Viability of the 3LL cells prepared in this way is generally about 95-99% (by trypan blue dye exclusion). Viable tumor cells (3×10^4-5×10^6) suspended in 0.05 ml PBS are injected subcutaneously, either in the dorsal region or into one hind foot pad of C57BL/6 mice. Visible tumors appear after 3-4 days after dorsal sc injection of 10^6 cells. The day of tumor appearance and the diameters of established tumors are measured by caliper every two days.
The treatment is given as one or two doses of peptide or derivative, per week. In another embodiment, the peptide is delivered by osmotic minipump.
Lungs are removed and weighed. Lungs are fixed in Bouin's solution and the number of visible metastases is recorded. The diameters of the metastases are also measured using a binocular stereoscope equipped with a micrometer-containing ocular under 8× magnification. On the basis of the recorded diameters, it is possible to calculate the volume of each metastasis. To determine the total volume of metastases per lung, the mean number of visible metastases is multiplied by the mean volume of metastases. To further determine metastatic growth, it is possible to measure incorporation of ^125IdUrd into lung cells (Thakur, M. L. et al., J. Lab. Clin. Med. 89:217-228 (1977). Ten days following tumor amputation, 25 μg of fluorodeoxyuridine is inoculated into the peritoneums of tumor-bearing (and, if used, tumor-resected mice). After 30 min, mice are given 1 μCi of ^125IdUrd (iododeoxyuridine). One day later, lungs and spleens are removed and weighed, and a degree of ^125IdUrd incorporation is measured using a gamma counter.
as §1

Mat B-III tumors = test: Rat syngeneic Mat B-III breast cancer model; type: in vivo; conditions: comparative analysis of related peptides
Protocol: The effects of the compounds are tested on tumor progression in a rat syngeneic model of breast cancer (Xing and Rabbani, 1996). Mat BIII rat breast tumor cells (1×10^6 cells in PBS, 0.1 mL per rat) are inoculated into the mammary fat pads of female Fisher rats. The test compound is dissolved in PBS (200 mM stock), sterile filtered and dispensed in vivo at a dose of up to about 100 mg/kg/day) using a 14-day Alza osmotic mini-pump implanted intraperitoneally at the time of inoculation. Control animals receive vehicle (PBS) alone. Animals are euthanized at day 14 and examined for metastasis in the spleen, lungs, liver, kidney and lymph nodes. In addition, the primary tumors are excised, quantitated, and prepared for immunohistochemistry.
The rat syngeneic breast cancer system (Xing and Rabbani, 1996) employs Mat BIIIrat breast cancer cells. When Mat B-III cells (1×10^6 cells) are inoculated into the mammary fat pad of female Fisher rats, they form large tumors which metastasize to regional lymph nodes (LNs) and other distal sites within 14-20 days.
Å6 was initially delivered prophylactically (infusion starting on the day of tumor inoculation) using an Alzet mini-pump that delivered 75 mg/kg/day. […] Metastasis was quantitated by counting the number of macroscopic foci without regard for their size.
Estrogen receptor-positive Mat B-III tumors were used to test combination treatment with Å6 (75 mg/kg/day) and TAM (3 mg/kg/day). In contrast to previous studies, the Mat B-III tumors (inoculated in the mammary fat pad) were staged to 40-50 mm^3 prior to the initiation of treatment. Treatment was continued for 8 days during which time primary tumor growth was measured using calipers (FIG. 14).

3LL cells = test: Tumor angiogenesis (microvessel density) in 3LL model; type: in vivo, Mice; conditions: 100-250 mg/kg/day; compared to controls
Protocol: Angiogenesis is measured by determining microvessel density using immunostaining for CD31 (also known as platelet-endothelial cell adhesion molecule or PECAM). Results are reported as the average microvessel density of 5 fields each from 5 different sections (Penfold et al., 1996). Typically, the whole tumor is excised, sectioned and the sections examined histologically for microvessel density using appropriate stains or labels for other markers.
Angiogenesis induced by tumor growth and metastasis in vivo is examined in the models systems described above. Mice injected with 3LL cells are treated either with peptide or with vehicle and are sacrificed at various time points. Angiogenesis is assessed by determining microvessel density (MVD) using an antibody specific for microvascular endothelium or other markers of growing blood vessels, such as PECAM (CD31). Such an antibody is employed in conventional immunohistological methods to immunostain tissue sections as described by Penfold et al., supra. A large number of such antibodies is commercially available, for example the JC70 mAb. The MVD are correlated with other measures of tumor behavior including lymph node status and primary tumor size and rate of growth. In humans as reported by Penfold et al., supra, tumor MVD correlates with lymph node metastasis and is independent of tumor size, growth rate or type of histological differentiation.
The compounds are given i.v., i.p., or by osmotic minipump Typical dosages are 100-250 mg/kg/day. At various time points, two animals are sacrificed, and the tumor tissue and surrounding tissue is prepared for histological examination. Results are reported as the average microvessel density of 5 fields each from 5 different sections. The following seven compounds are tested: Ac-[…]-Am (SEQ ID NO:2), Ac-[…]-Am (SEQ ID NO: 6) (disubstitution variant at positions 3 and 4), Ac-[…]-Am (SEQ ID NO: 7) (disubstitution variant at positions 7 and 8), Ac-[…]-Am (SEQ ID NO: 8) (substitution variant at position 1), Ac-PSSPPEE-Am (SEQ ID NO: 4) (deletion variant, position 1 of SEQ ID NO:2 deleted), Ac-KPSSPPE-Am (SEQ ID NO: 5) (deletion variant, position 8 of SEQ ID NO:2 deleted), and Ac-[…]-Am (SEQ ID NO:1).

[1] = tested on: human prostate cancer line PC-3; test: Matrigel invasion assay, PC-3 cells; type: cell-based; conditions: 5 μM (FIG. 1, FIG. 2)
Protocol: Several peptides were tested for anti-invasive capacity in a Matrigel® invasion assay system as indicated above (Kleinman et al., supra; Parish et al., supra). Several invasive human tumor lines (PC-3, MDA-MB-231) and non-human tumors (3LL, Mat B-III) were examined. The rat breast cancer line Mat B III and the human prostate cancer line PC-3 were initially used.
Tumor cells (5×10^5/mL, in a volume of 200 μL) in serum-free RPMI 1640 medium were added to a disposable transwell invasion chamber coated with Matrigel® (Becton Dickinson, Lincoln Park, N.J.). The invasion chambers were placed in 24-well tissue culture plates filled with serum-free RPMI-1640 and the plates were placed in an atmosphere of 5% CO2 in humidified air at 37° C. for 48-72 hours. The chambers were then removed, inverted, and the cells which had invaded (and now appeared on the bottom face of the invasion chamber) were fixed and stained using Diff-Quick® (Scientific Products). Cells were counted in 10 different fields on each filter and an average obtained.

Substance | metastasis, PC-3 model (PC-3 cells) | metastasis, 3LL model (3LL) | number of metastases in the spleen, lungs, liver, kidney and lymph nodes (Mat B-III tumors) | size of the primary tumor (Mat B-III tumors) | number of microvessels in the region of the primary tumor (3LL cells) | in vitro invasion of PC-3 cells in a Matrigel system [1]
Ac-KPSSPPDD-Am: disubstitution variant at positions 7 and 8 (SEQ ID NO: 7) (Ac-KPSSPPDD-NH2) | markedly inhibited | markedly inhibited | significant reduction | significant reduction | significant reduction | –
Ac-KPSSPPEELK-Am: capped counterpart of KPSSPPEELK (SEQ ID NO: 1) (Ac-KPSSPPEELK-NH2) [reference compound] | no reduction | no reduction | fail to cause a significant change | fail to cause a significant change | no significant effect | –
Ac-KPTTPPEE-Am: disubstitution variant at positions 3 and 4 (SEQ ID NO: 6) (Ac-KPTTPPEE-NH2) | markedly inhibited | markedly inhibited | significant reduction | significant reduction | significant reduction | –
Ac-Lys-Pro-Ser-Ser-Pro-Pro-Glu-Am (Ac-KPSSPPE-NH2) [Ac-KPSSPPE-Am] | no reduction | no reduction | fail to cause a significant change | fail to cause a significant change | no significant effect | –
Ac-Pro-Ser-Ser-Pro-Pro-Glu-Glu-Am (Ac-PSSPPEE-NH2) [Ac-PSSPPEE-Am] | no reduction | no reduction | fail to cause a significant change | fail to cause a significant change | no significant effect | –
Ac-RPSSPPEE-Am: substitution variant at position 1 (SEQ ID NO: 8) (Ac-RPSSPPEE-NH2) | markedly inhibited | markedly inhibited | significant reduction | significant reduction | significant reduction | –
KPSSPPEELK [Lys-Pro-Ser-Ser-Pro-Pro-Glu-Glu-Leu-Lys, reference compound] | – | – | – | – | – | inactive
